This experiment concerns the target Complement factor D (Homo sapiens, UniProt P00746). The experiment can be described thus: Human Factor D Assay: Human factor D (purified from human serum, Complement Technology, Inc.) at 80 nM final concentration is incubated with test compound at various concentrations for 5 minutes at room temperature in 50 mM Tris, 1M NaCl, pH 7.5. A synthetic substrate Z-L-Lys-SBzl and DTNB (Ellman's reagent) are added to final concentrations of 100 μM each. The increase in color is recorded at OD405 nm in a microplate in kinetic mode over 30 minutes with 30 second time points in a […]. IC50 values are calculated by non-linear regression from the percentage of inhibition of complement factor D activity as a function of test compound concentration.

IC50 data for 1 molecule are collected here from ChEMBL document CHEMBL5725324, “Amide compounds for treatment of complement mediated disorders” (2017).

Chain of Complement factor D (P00746 whole entry): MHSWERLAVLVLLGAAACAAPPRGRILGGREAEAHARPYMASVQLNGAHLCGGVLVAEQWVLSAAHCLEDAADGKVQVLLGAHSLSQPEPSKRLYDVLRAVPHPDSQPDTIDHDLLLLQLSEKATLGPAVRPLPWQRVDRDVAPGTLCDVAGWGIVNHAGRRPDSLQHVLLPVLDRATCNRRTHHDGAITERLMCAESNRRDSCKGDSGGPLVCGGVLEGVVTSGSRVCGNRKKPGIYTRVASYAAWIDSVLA

`CC(=O)c1cn(CC(=O)N2[C@@H]3C[C@@H]3C[C@H]2C(=O)NCc2cccc(Cl)c2F)c2ccc(NC(=O)N3CCCC3)cc12`: the IC50 (usually the concentration at which inhibition is half-maximal) is less than 1000 nM.
